{"source": "patent US20100113570A1", "about": "“PREVENTION AND TREATMENT OF POST-OPERATIVE COGNITIVE DYSFUNCTION” (The General Hospital Corporation, priority 2008, published 2010)", "key": {"H4-APP cells [1]": {"test_system": "H4-APP cells", "assay": "Caspase-3 activation by Western blot (ratio of caspase-3 fragment to FL-caspase-3) in H4-APP cells", "type": "cell-based, human", "protocol": "(§1) Cell lines. We used naive H4 human neuroglioma cells stably transfected to express full-length APP (FL-APP; H4-APP cells) in the studies. The cells were cultured in DMEM (high glucose) containing 9% heat inactivated fetal calf serum, 100 U/ml penicillin, 100 μg/ml streptomycin, 2 mM L-glutamine, and 200 μg/ml G418.\n(§2) Cell treatment. Twenty-one percent O2, 5% CO2, and 2% isoflurane were delivered from an anesthesia machine to a sealed plastic box in a 37° Celsius incubator containing six-well plates seeded with one million cells in 1.5 ml of cell culture media as described in our previous studies (Xie et al., 2006a,b, 2007). Date infrared gas analyzer (Puritan-Bennett, Tewksbury, Mass.) was used to continuously monitor the delivered CO2, O2, and isoflurane concentrations. We treated the cells with 2% isoflurane for 6 h, during which time the cells were incubated in serum-free media. In the interaction studies, the cells were treated with memantine (4 μM) 1 h before the treatment of 2% isoflurane. Low-calcium condition was created by using a calcium-free cell culture media (Invitrogen, Carlsbad, Calif.) and by adding EDTA (10 mM; Sigma-Aldrich, St. Louis, Mo.), a chelating compound (Rekasi et al., 2005), or BAPTA (10 μM; Sigma-Aldrich), an intracellular calcium chelator, to the media. […] These siRNAs and control siRNAs (3′[…]) were obtained from Dharmacon (Lafayette, Colo.). siRNAs were transfected into cells by using electroporation (Amaxa Biosystems, Gaithersburg, Md.) as described by Xie et al. (2005b). Briefly, we mixed 1 million cells, 100 μl of AMAXA electroporation transfection solution, and 10 μl of 20 μM siRNA together and then used the C-9 program in an AMAXA electroporation device for cell transfection. The transfected cells were then placed in one of the six-well plates containing 1.5 ml of cell culture media. The pretreated cells were then exposed to the isoflurane treatment.\nCell lysis and protein amount quantification. Cell pellets were detergent-extracted on ice using immunoprecipitation buffer (10 mM Tris-HCl, pH 7.4, 150 mM NaCl, 2 mM EDTA, 0.5% Nonidet P-40) plus protease inhibitors (1 μg/ml aprotinin, 1 μg/ml leupeptin, 1 μg/ml pepstatin A). The lysates were collected, centrifuged at 12,000 rpm for 10 min, and quantified for total proteins by a BCA protein assay kit (Pierce Technology Corporation, Iselin, N.J.).\nWestern blot analysis. The harvested cells and brain tissues were subjected to Western blots as described by Xie et al. (2005a). A caspase-3 antibody (1:1000 dilution; Cell Signaling Technology, Beverly, Mass.) was used to recognize caspase-3 fragment (17-20 kDa) resulting from cleavage at asparate position 175 and FL-caspase-3 (35-40 kDa). Caspase-3 cleavage (activation) is based on the ratio of caspase-3 fragment to FL caspase-3. Antibody anti-b-actin was used to visualize b-actin (42 kDa). Antibodies for IP3 receptor (1:1000; Millipore Bioscience Research Reagents, Temecula, Calif.), NR1 (1:1000; PhosphoSolutions, Aurora, Colo.), and SERCA1 (1:1000; Abcam, Cambridge, Mass.) were used to recognize IP3 receptor (250 kDa), NR1 (120 kDa), and SERCA1 (110 kDa). The quantitation of Western blots was performed as described by Xie et al. (2005a). Briefly, the intensity of signals was analyzed by using a Bio-Rad (Hercules, Calif.) image program (Quantity One) and an NIH Image version 1.37v. We quantified the Western blots using two steps."}, "caspase-3": {"test_system": "caspase-3", "assay": "Caspase-3 activation in brain tissue of naive mice (Western blot)", "type": "in vivo", "protocol": "Mice treatment. The animal protocol was approved by the Massachusetts General Hospital Standing Committee on Animals Sixteen female C57BL/6 mice (5-6 months of age) (The Jackson Laboratory, Bar Harbor, Me.) were randomly assigned to an anesthesia or control group. […] This isoflurane treatment allows the mice to have sufficient exposure to isoflurane while avoiding excessive accumulation of CO2. The control mice (n=8) received 100% oxygen at an identical flow rate for 6 h and 20 min in an identical chamber. The mice breathed spontaneously, and anesthetic and oxygen concentrations were measured continuously (Datex, Puritan-Bennett; Ohmeda PPD, Madison, Wis.). Rectal temperature was measured intermittently, and the temperature of the anesthetizing chamber was controlled to maintain rectal temperature of the animals at 37±0.5° C. Mean arterial blood pressure was measured noninvasive using a tail cuff (CODA2 system; Kent Scientific Corporation, Torrington, Conn.) in the anesthetized mice. […] Mice were killed by decapitation at the end of the experiments, the brain was removed rapidly, and the prefrontal cortex was dissected out and frozen in liquid nitrogen for subsequent processing for the determination of caspase-3activation. […] Brain tissue lysis and protein amount quantification. […] The lysates were collected, centrifuged at 12,000 rpm for 10 min, and quantified for total proteins by a BCA protein assay kit (Pierce Technology Corporation). Western blot analysis. The harvested cells and brain tissues were subjected to Western blots as described by Xie et al. (2005a). […] Caspase-3 cleavage (activation) is based on the ratio of caspase-3 fragment to FL caspase-3. Antibody anti-b-actin was used to visualize b-actin (42 kDa). […] The quantitation of Western blots was performed as described by Xie et al. (2005a). Briefly, the intensity of signals was analyzed by using a Bio-Rad (Hercules, Calif.) image program (Quantity One) and an NIH Image version 1.37v. We quantified the Western blots using two steps. […] Data were expressed as mean±SD. […]"}, "H4-APP cells [2]": {"test_system": "H4-APP cells", "assay": "Cytosolic calcium measurement (Fura-2 ratio)", "type": "cell-based, human", "protocol": "Cytosolic calcium measurement. Cytosolic calcium levels were determined as described by Wei et al. (2008). Specifically, H4-APP cells were loaded with Fura-2 (Invitrogen), perfused with Tyrode buffer, and [Ca2+]i transients were recorded as changes in Fura-2 ratio (340/380 nm) using a spectrofluoroscope system (Ionoptix, Milton, Mass.)."}, "H4-APP cells [3]": {"test_system": "H4-APP cells", "assay": "MTT cell viability assay", "type": "cell-based, human", "protocol": "as §1, §2"}, "H4-APP cells [4]": {"test_system": "H4-APP cells", "assay": "Cell apoptosis assay (cell death detection ELISA)", "type": "cell-based, human", "protocol": "as §1, §2"}, "MTT cell viability assay": {"assay": "MTT cell viability assay", "type": "cell-based, human", "conditions": "human, MTT", "protocol": "as §1, §2"}, "[5]": {"assay": "Blood pressure and blood gas of anesthetized mice", "type": "in vivo", "conditions": "1.4% isoflurane for 2 h; data not shown", "protocol": "Mice treatment. The animal protocol was approved by the Massachusetts General Hospital Standing Committee on Animals Sixteen female C57BL/6 mice (5-6 months of age) (The Jackson Laboratory, Bar Harbor, Me.) were randomly assigned to an anesthesia or control group. […] This isoflurane treatment allows the mice to have sufficient exposure to isoflurane while avoiding excessive accumulation of CO2. The control mice (n=8) received 100% oxygen at an identical flow rate for 6 h and 20 min in an identical chamber. The mice breathed spontaneously, and anesthetic and oxygen concentrations were measured continuously (Datex, Puritan-Bennett; Ohmeda PPD, Madison, Wis.). Rectal temperature was measured intermittently, and the temperature of the anesthetizing chamber was controlled to maintain rectal temperature of the animals at 37±0.5° C. Mean arterial blood pressure was measured noninvasive using a tail cuff (CODA2 system; Kent Scientific Corporation, Torrington, Conn.) in the anesthetized mice. […] Mice were killed by decapitation at the end of the experiments, the brain was removed rapidly, and the prefrontal cortex was dissected out and frozen in liquid nitrogen for subsequent processing for the determination of caspase-3activation."}, "[6]": {"conditions": "memantine 4 μM alone vs control conditions"}, "[7]": {"conditions": "isoflurane plus control siRNA, control = 100%"}}, "data": [{"molecule": "O=C(O)CN(CCN(CC(=O)O)CC(=O)O)CC(=O)O", "note": "[EDTA, ethylenediaminetetraacetic acid]", "values": [{"measurement": "reduction in caspase-3 activation compared with isoflurane plus normal calcium", "setting": "H4-APP cells [1]; isoflurane plus low calcium and EDTA (10 mM), H4-APP cells", "result": 68, "unit": "%"}]}, {"molecule": "O=C(O)CN(CC(=O)O)c1ccccc1OCCOc1ccccc1N(CC(=O)O)CC(=O)O", "note": "[BAPTA, 1,2-bis (o-aminophenoxy)ethane-N,N,N′,N′-tetraacetic acid]", "values": [{"measurement": "caspase-3 activation, BAPTA plus isoflurane", "setting": "H4-APP cells [1]; BAPTA 10 μM plus 2% isoflurane for 6 h, control = 100%", "result": 154, "unit": "%"}, {"measurement": "caspase-3 activation, BAPTA alone", "setting": "H4-APP cells [1]; BAPTA plus control condition vs DMSO plus control condition", "result": "does not induce caspase-3 activation"}]}, {"molecule": "CC12CC3CC(C)(C1)CC(N)(C3)C2", "note": "[memantine]", "values": [{"measurement": "caspase-3 activation in mouse brain, memantine plus isoflurane", "setting": "caspase-3; memantine 20 mg/kg i.p. 1 h before three sessions of 1.4% isoflurane for 2 h, control = 100%", "result": 97, "unit": "%"}, {"measurement": "caspase-3 activation in mouse brain, memantine alone", "setting": "caspase-3; memantine 20 mg/kg intraperitoneal alone vs control condition", "result": "did not induce caspase-3 activation"}, {"measurement": "isoflurane-induced elevation in cytosolic calcium levels, memantine pretreatment", "setting": "H4-APP cells [2]; pretreated with memantine 4 μM, then isoflurane 1 mM or 3.5%", "result": "isoflurane failed to increase cytosolic calcium levels"}, {"measurement": "cell viability, memantine alone", "setting": "H4-APP cells [3]; [6]", "result": "had no effects on either cell viability or apoptosis"}, {"measurement": "cell viability, memantine plus isoflurane", "setting": "H4-APP cells [3]; memantine 4 μM plus 2% isoflurane for 6 h, percent of control, MTT", "result": 95, "unit": "%"}, {"measurement": "caspase-3 activation, memantine plus isoflurane", "setting": "H4-APP cells [1]; memantine 4 μM 1 h before 2% isoflurane for 6 h, H4-APP cells, control = 100%", "result": 101, "unit": "%"}, {"measurement": "caspase-3 activation, memantine alone", "setting": "H4-APP cells [1]; memantine 4 μM alone vs control conditions, H4-APP cells", "result": "did not induce caspase-3 activation"}, {"measurement": "cell apoptosis, memantine alone", "setting": "H4-APP cells [4]; [6]", "result": "had no effects on either cell viability or apoptosis"}, {"measurement": "cell apoptosis, memantine plus isoflurane", "setting": "H4-APP cells [4]; memantine 4 μM plus 2% isoflurane for 6 h, control = 100%", "result": 99, "unit": "%"}]}, {"molecule": "FC(F)OC(Cl)C(F)(F)F", "note": "(centres unmarked) [isoflurane]", "values": [{"measurement": "caspase-3 activation in mouse brain compared with control condition", "setting": "caspase-3; three sessions of 1.4% isoflurane for 2 h, prefrontal cortex, control = 100%", "result": 177, "unit": "%"}, {"measurement": "cytosolic calcium levels, isoflurane", "setting": "H4-APP cells [2]; isoflurane 1 mM or 3.5%", "result": "can elevate cytosolic calcium levels"}, {"measurement": "viability at 6 h, 2 %", "setting": "MTT cell viability assay; 2% isoflurane for 6 h, percent of control, read-out: cell viability, isoflurane alone", "result": 74, "unit": "%"}, {"measurement": "cytotoxicity at 6 h, 2 %", "setting": "MTT cell viability assay; 2% isoflurane for 6 h vs control conditions, read-out: reduction in cell viability", "result": 26, "unit": "%"}, {"measurement": "caspase-3 activation compared with control conditions", "setting": "H4-APP cells [1]; 2% isoflurane for 6 h alone, H4-APP cells, control = 100%", "result": 184, "unit": "%"}, {"measurement": "caspase-3 activation, isoflurane plus DMSO (BAPTA experiment)", "setting": "H4-APP cells [1]; 2% isoflurane for 6 h plus DMSO, control = 100%", "result": 185, "unit": "%"}, {"measurement": "caspase-3 activation, isoflurane plus control siRNA (NR1 experiment)", "setting": "H4-APP cells [1]; 2% isoflurane for 6 h plus control siRNA, control = 100%", "result": 168, "unit": "%"}, {"measurement": "caspase-3 activation, isoflurane plus control siRNA (IP3 receptor experiment)", "setting": "H4-APP cells [1]; [7]", "result": 292, "unit": "%"}, {"measurement": "caspase-3 activation, isoflurane plus control siRNA (SERCA1 experiment)", "setting": "H4-APP cells [1]; [7]", "result": 194, "unit": "%"}, {"measurement": "cell apoptosis compared with control conditions", "setting": "H4-APP cells [4]; 2% isoflurane for 6 h alone, control = 100%", "result": 137, "unit": "%"}, {"measurement": "effect on blood pressure and venous blood gas", "setting": "[5]", "result": "did not significantly affect blood pressure and venous blood gas"}]}]}
